Columns and labels:
[1] = tested on: chicks of chair label JA657 strain; assay: Hypnotic and sedative activities in chicks (alternate lighting, test between 2.00 pm and 3.00 pm); conditions: for ST (sleeping time) / Sedation time (after waking up, Stage 2) / FAT (falling-asleep time): IM; for FAT (falling-asleep time): to the nearest minute
Beagle dogs = assay: Hypnotic activity in Beagle dogs (polygraphic measurement of the conscious and sleeping states); assay type: in vivo, dog; conditions: for Mean duration of the state of consciousness: Consciousness / Mean duration of the state of consciousness: Drowsiness / Mean duration: P.S. (paradoxal sleep) / Mean duration: Slow-wave sleep S1 + S2 / Mean duration: Total sleep / Mean latency time: Drowsiness / Mean latency time: P.S. (paradoxal sleep) / Mean latency time: Slow-wave sleep S1: 7 Beagle dogs, IV single bolus; for Mean duration of the state of consciousness: Consciousness / Mean duration of the state of consciousness: Drowsiness / Mean duration: P.S. (paradoxal sleep) / Mean duration: Slow-wave sleep S1 + S2 / Mean duration: Total sleep: 150 min recording; for Hypnotic power (in words): Beagle dogs, IV, sleep with high proportion of slow waves, consciousness reduced, latencies reduced
Method: During each test, the dogs are taken to a recording room in which they are connected to a Schwarzer ED 24 polygraph driven by Brainlab® for Windows® by means of a flexible cable. The dog is then placed in a 0.70×1×0.8 m metal cage in which it stays for 150 minutes.
The test products and the placebo were administered intravenously as a single bolus into the anterior median vein. The recordings are noted in periods of 30 seconds following the five states of vigilance defined by Shelton et al.:
deep slow-wave sleep, and
by examining the amplitude and frequency of the 2 frontal EEG plots (frontal), the EOG plots (bilateral) and the EMG plots (neck muscles) as follows:
Conscious: The dogs may be standing, sitting or lying down, or moving between these positions. Their eyes are open. This state includes all the episodes of multiple voltage and frequency with muscular activity.
Drowsy: The dogs are lying down with the eyes closed for most of the time. The EEG plots show slow-wave cycles (5-7 Hz) without the appearance of spindles. Large-amplitude synchronous slow waves (4-7 Hz) appear on a background of rapid activity. The EMG tends to be reduced compared with the conscious state.
Light sleep (SL1 or S1): The dogs are lying down in the stretched ventral position or, usually, in an incomplete circle. The relaxation is total. The EEG plots are characterized by K complexes and/or spindles. The amplitude increases.
Deep sleep (SL2 or S2): The dogs are lying down, with relaxed muscles. They remain without reaction to moderate stimulations (by sound). The slow delta waves (<4 Hz) with an amplitude of at least 70 μV constitute at least 20% of a period of 30 seconds.
Paradoxal sleep (PS): The dogs are lying down with the eyes closed and occasionally display rapid contractions of the eyelids and/or myoclonia, in particular of the labial extensor muscles. The EEG plots are of low voltage and varied frequencies. The EOG plots show rapid contractions. The EMG plot is of low amplitude, with the exception of the short-lived clonus. A period is classified as paradoxal sleep only if the preceding period is a period of sleep. The end of a period of paradoxal sleep is determined by the appearance of K complexes or spindles, or by the appearance of EMG activity.
The test compounds are administered intravenously by means of a vehicle having the composition: 50/50 (V/V) PEG-400/water for injectable preparations, as a single bolus of 10 ml per 12 kg of live weight.
The placebo consists of the intravenous administration of the vehicle alone, having the composition: 50/50 (V/V) PEG-400/water for injectable preparations, as a single bolus of 10 ml per 12 kg of live weight.
The distribution of the observation time spent in each of the stages of consciousness and sleep, as well as the latency times for onset of the first stages of each type of sleep, are given in Table I.

[2] = 0.5 μmol/100 g, batch means of 3 chicks, limit values if >2 batches
[3] = 1 μmol/100 g, batch means of 3 chicks, limit values if >2 batches
[4] = 2 μmol/100 g, batch means of 3 chicks, limit values if >2 batches

## COc1ccc2[nH]c3c(c2c1)CCN=C3C [10-METHOXYHARMALAN, 10-methoxy harmalan]
[1]; 1.4 μmol/100 g (3 mg/kg)
  ST (sleeping time): 0
  Sedation time (after waking up, Stage 2): 0

## CN1C(=O)CN=C(c2ccccc2)c2cc(Cl)ccc21 [DIAZEPAM, diazepam]
[1]; [2]
  ST (sleeping time): 10-50
  FAT (falling-asleep time): 3-6
[1]; [3]
  ST (sleeping time): 24-70
  Sedation time (after waking up, Stage 2): 17-20
  FAT (falling-asleep time): 2-7
[1]; [4]
  ST (sleeping time): 81-100
  Sedation time (after waking up, Stage 2): 14-15
  FAT (falling-asleep time): 2-5

## C=C1c2[nH]c3ccc(OC)cc3c(=O)c2CN1C(C)=O [Example 1, 2-Acetyl-7-methoxy-3-methylene-9-oxo-1,3,4,9-tetrahydropyrrolo[3,4-b]quinoline]
[1]; [4]
  ST (sleeping time): 30
  Sedation time (after waking up, Stage 2): 35
  FAT (falling-asleep time): 10.5

## CCC1=C2c3[nH]c4ccc(OC)cc4c(=O)c3CN2C(=O)CC1 [Example 4]
Beagle dogs; 1.5 μmol/kg
  Mean duration of the state of consciousness: Consciousness: 115.4 min
  Mean duration of the state of consciousness: Drowsiness: 15.9 min
  Mean duration: P.S. (paradoxal sleep): 2.4 min
  Mean duration: Slow-wave sleep S1 + S2: 16.3 min
  Mean duration: Total sleep: 34.6 min
  Mean latency time: Drowsiness: 63.8 min
  Mean latency time: P.S. (paradoxal sleep): 114.8 min
  Mean latency time: Slow-wave sleep S1: 84.8 min
Beagle dogs
  Hypnotic power (in words): marked hypnotic power
[1]; [3]
  ST (sleeping time): 30
  Sedation time (after waking up, Stage 2): 47
  FAT (falling-asleep time): 13

## COc1ccc2[nH]c3c(c(=O)c2c1)CN1C(=O)CCC(c2ccccc2)=C31 [Example 5]
Beagle dogs; 1 μmol/kg
  Mean duration of the state of consciousness: Consciousness: 108.1 min
  Mean duration of the state of consciousness: Drowsiness: 15.8 min
  Mean duration: P.S. (paradoxal sleep): 2.6 min
  Mean duration: Slow-wave sleep S1 + S2: 23.4 min
  Mean duration: Total sleep: 41.9 min
  Mean latency time: Drowsiness: 51.7 min
  Mean latency time: P.S. (paradoxal sleep): 110.7 min
  Mean latency time: Slow-wave sleep S1: 69.0 min
Beagle dogs
  Hypnotic power (in words): marked hypnotic power
[1]; 0.87 μmol/100 g (3.12 mg/kg)
  ST (sleeping time): 36
  Sedation time (after waking up, Stage 2): 44
  FAT (falling-asleep time): 10

## COc1ccc2[nH]c3c(c(=O)c2c1)CN(C(C)=O)C3C (stereo not drawn) [Example 6, 2-Acetyl-7-methoxy-3-methyl-9-oxo-1,3,4,9-tetrahydropyrrolo[3,4-b]quinoline]
[1]; [4]
  ST (sleeping time): 33
  Sedation time (after waking up, Stage 2): 27
  FAT (falling-asleep time): 15

## CCC1CCC(=O)N2Cc3c([nH]c4ccc(OC)cc4c3=O)C12 (stereo not drawn) [Example 9]
[1]; [3]
  ST (sleeping time): 36
  Sedation time (after waking up, Stage 2): 44
  FAT (falling-asleep time): 7

## COc1ccc2c3c([nH]c2c1)C(C)=NCC3 [HARMALIN, harmaline]
[1]; 1.4 μmol/100 g (3 mg/kg)
  ST (sleeping time): 0
  Sedation time (after waking up, Stage 2): 0

## COc1ccc2[nH]cc(CCNC(C)=O)c2c1 [MELATONIN, melatonin]
[1]; [2]
  ST (sleeping time): 0
[1]; [3]
  ST (sleeping time): 0
  Sedation time (after waking up, Stage 2): 16-36
[1]; [4]
  ST (sleeping time): 0
  Sedation time (after waking up, Stage 2): 47-105
[1]; administration during the daylight phase between 2.00 pm and 3.00 pm
  Hypnotic activity (in words): no hypnotic activity

## CCCC(C)C1(CC)C(=O)NC(=O)NC1=O (stereo not drawn) [PENTOBARBITAL, pentobarbital sodium]
[1]; [2]
  ST (sleeping time): 0
[1]; [3]
  ST (sleeping time): 36
  FAT (falling-asleep time): 13
